# Data: article PMC5218480 (PLoS ONE, 2017)
# Tested on: MV-4-11 cells
# Experiment: Gene expression microarray analysis (Affymetrix PrimeView) and GSEA
# Format: cell-based, human
# Parameters: RFU PODN (11730768_x_at) / Fold change /veh PODN (11730768_x_at) / RFU LINC00158 (11744669_a_at) / Fold change /veh LINC00158 (11744669_a_at) / RFU DUSP10 (11751237_a_at) / Fold change /veh DUSP10 (11751237_a_at) / RFU ID3 (11757404_x_at) / Fold change /veh ID3 (11757404_x_at) / RFU PLEKHG5 (11737974_s_at) / Fold change /veh PLEKHG5 (11737974_s_at) / RFU LRRC4B (11730491_at) / Fold change /veh LRRC4B (11730491_at) / RFU GIMAP4 (11747438_a_at) / Fold change /veh GIMAP4 (11747438_a_at) / RFU KRT8 (11758183_x_at) / Fold change /veh KRT8 (11758183_x_at) / RFU CNN1 (11734310_a_at) / Fold change /veh CNN1 (11734310_a_at) / RFU VPS37D (11726825_at) / Fold change /veh VPS37D (11726825_at) / RFU C10orf10 (11716522_x_at) / Fold change /veh C10orf10 (11716522_x_at) / RFU KIR2DL2 /// KIR2DL4 /// KIR2DL5A /// KIR2DL5B /// KIR2DS1 /// KIR2DS2 /// KIR2DS3 /// KIR2DS4 /// KIR3DL3 /// KIR3DL3 /// KIR3DS1 (11738374_at) / Fold change /veh KIR2DL2 /// KIR2DL4 /// KIR2DL5A /// KIR2DL5B /// KIR2DS1 /// KIR2DS2 /// KIR2DS3 /// KIR2DS4 /// KIR3DL3 /// KIR3DL3 /// KIR3DS1 (11738374_at) / RFU C1QL1 (11718748_at) / Fold change /veh C1QL1 (11718748_at) / RFU TMPRSS4 (11747572_a_at) / Fold change /veh TMPRSS4 (11747572_a_at) / RFU HAMP (11756126_x_at) / Fold change /veh HAMP (11756126_x_at) / RFU RNFT2 (11725882_a_at) / Fold change /veh RNFT2 (11725882_a_at) / RFU NR4A2 (11747474_a_at) / Fold change /veh NR4A2 (11747474_a_at) / RFU ABCC12 (11746883_a_at) / Fold change /veh ABCC12 (11746883_a_at) / RFU TMEM136 (11760407_x_at) / Fold change /veh TMEM136 (11760407_x_at) / RFU CLDN22 /// WWC2 (11732394_at) / Fold change /veh CLDN22 /// WWC2 (11732394_at) / RFU HLA-DPB1 (11760878_x_at) / Fold change /veh HLA-DPB1 (11760878_x_at) / RFU SPINT1 (11716480_a_at) / Fold change /veh SPINT1 (11716480_a_at) / RFU GAP43 (11754022_s_at) / Fold change /veh GAP43 (11754022_s_at) / RFU A4GNT (11735810_at) / Fold change /veh A4GNT (11735810_at) / RFU PRB3 (11715151_x_at) / Fold change /veh PRB3 (11715151_x_at) / RFU TUBB4B (11761932_at) / Fold change /veh TUBB4B (11761932_at) / RFU CAPN14 (11732068_a_at) / Fold change /veh CAPN14 (11732068_a_at) / RFU TMCC2 (11721928_a_at) / Fold change /veh TMCC2 (11721928_a_at) / RFU IRGQ (11745062_a_at) / Fold change /veh IRGQ (11745062_a_at) / RFU FAM174B (11720279_a_at) / Fold change /veh FAM174B (11720279_a_at) / RFU TMPRSS4 (11748680_a_at) / Fold change /veh TMPRSS4 (11748680_a_at) / RFU FAM212B (11763350_a_at) / Fold change /veh FAM212B (11763350_a_at) / RFU PLEKHG5 (11743358_a_at) / Fold change /veh PLEKHG5 (11743358_a_at) / RFU ZSCAN30 (11745921_a_at) / Fold change /veh ZSCAN30 (11745921_a_at) / RFU CMKLR1 (11741424_a_at) / Fold change /veh CMKLR1 (11741424_a_at) / RFU LOC101060620 /// MAPK8IP1 (11723275_at) / Fold change /veh LOC101060620 /// MAPK8IP1 (11723275_at) / RFU SPTSSB (11747773_x_at) / Fold change /veh SPTSSB (11747773_x_at) / RFU PRSS12 (11739890_at) / Fold change /veh PRSS12 (11739890_at) / RFU BIN1 (11741810_x_at) / Fold change /veh BIN1 (11741810_x_at) / RFU WNT11 (11732464_a_at) / Fold change /veh WNT11 (11732464_a_at) / RFU C10orf10 (11716521_a_at) / Fold change /veh C10orf10 (11716521_a_at) / RFU C5orf56 (11738089_at) / Fold change /veh C5orf56 (11738089_at) / RFU CYB561 (11721691_x_at) / Fold change /veh CYB561 (11721691_x_at) / RFU ANKRD19P (11752326_a_at) / Fold change /veh ANKRD19P (11752326_a_at) / RFU OR2T12 /// OR2T33 /// OR2T8 (11738714_s_at) / Fold change /veh OR2T12 /// OR2T33 /// OR2T8 (11738714_s_at) / RFU VCAN (11748164_a_at) / Fold change /veh VCAN (11748164_a_at) / RFU JSRP1 (11732532_at) / Fold change /veh JSRP1 (11732532_at) / RFU KRTAP10-11 (11738290_x_at) / Fold change /veh KRTAP10-11 (11738290_x_at) / RFU MYO3A (11730013_a_at) / Fold change /veh MYO3A (11730013_a_at) / RFU EBF3 (11725865_a_at) / Fold change /veh EBF3 (11725865_a_at) / RFU CAMK2N1 (11719241_x_at) / Fold change /veh CAMK2N1 (11719241_x_at) / RFU C5orf56 (11738088_a_at) / Fold change /veh C5orf56 (11738088_a_at) / RFU OLFML3 (11715873_a_at) / Fold change /veh OLFML3 (11715873_a_at) / RFU LOC100653217 /// NTM (11731650_a_at) / Fold change /veh LOC100653217 /// NTM (11731650_a_at) / RFU MAPK11 (11762145_a_at) / Fold change /veh MAPK11 (11762145_a_at) / RFU FIZ1 (11724087_x_at) / Fold change /veh FIZ1 (11724087_x_at) / RFU OASL (11726364_x_at) / Fold change /veh OASL (11726364_x_at) / RFU SOX15 (11748057_x_at) / Fold change /veh SOX15 (11748057_x_at) / RFU CD79A (11719716_a_at) / Fold change /veh CD79A (11719716_a_at) / RFU HIST1H1D (11736915_at) / Fold change /veh HIST1H1D (11736915_at) / RFU CASKIN2 (11723855_a_at) / Fold change /veh CASKIN2 (11723855_a_at) / RFU LOC730098 (11760151_x_at) / Fold change /veh LOC730098 (11760151_x_at) / RFU OR4N2 (11742367_at) / Fold change /veh OR4N2 (11742367_at) / RFU PRRT2 (11749266_a_at) / Fold change /veh PRRT2 (11749266_a_at) / RFU SNX32 (11753110_a_at) / Fold change /veh SNX32 (11753110_a_at) / RFU CDHR5 (11726645_a_at) / Fold change /veh CDHR5 (11726645_a_at) / RFU RCAN1 (11760418_a_at) / Fold change /veh RCAN1 (11760418_a_at) / RFU FAM167A (11723789_a_at) / Fold change /veh FAM167A (11723789_a_at) / RFU FAM26E (11764081_at) / Fold change /veh FAM26E (11764081_at) / RFU ISYNA1 (11749810_s_at) / Fold change /veh ISYNA1 (11749810_s_at) / RFU ACY1 (11761880_at) / Fold change /veh ACY1 (11761880_at) / RFU 11764098_at / Fold change /veh 11764098_at / RFU SAMD14 (11745864_x_at) / Fold change /veh SAMD14 (11745864_x_at) / RFU NPB (11741838_a_at) / Fold change /veh NPB (11741838_a_at) / RFU TMPRSS6 (11731388_a_at) / Fold change /veh TMPRSS6 (11731388_a_at) / RFU KRTAP10-2 (11738614_at) / Fold change /veh KRTAP10-2 (11738614_at) / RFU ARHGAP8 /// PRR5-ARHGAP8 (11727945_x_at) / Fold change /veh ARHGAP8 /// PRR5-ARHGAP8 (11727945_x_at) / RFU KRTAP5-7 /// NADSYN1 (11734609_at) / Fold change /veh KRTAP5-7 /// NADSYN1 (11734609_at) / RFU RASL12 (11751679_a_at) / Fold change /veh RASL12 (11751679_a_at) / RFU CDKN2B (11736163_a_at) / Fold change /veh CDKN2B (11736163_a_at) / RFU PRF1 (11729649_at) / Fold change /veh PRF1 (11729649_at) / RFU, ZNF638 /// ZNF638-IT1 / Fold change vs veh, ZNF638 /// ZNF638-IT1 / RFU, PANK3 / Fold change vs veh, PANK3 / RFU, SH3YL1 / Fold change vs veh, SH3YL1 / RFU, ZEB2 / Fold change vs veh, ZEB2 / RFU, NRIP1 / Fold change vs veh, NRIP1 / RFU, PTTG1IP / Fold change vs veh, PTTG1IP / RFU, CAPN2 / Fold change vs veh, CAPN2 / RFU, MED14 / Fold change vs veh, MED14 / RFU, SNORA58 / Fold change vs veh, SNORA58 / RFU, C1orf63 / Fold change vs veh, C1orf63 / RFU, LRRFIP1 / Fold change vs veh, LRRFIP1 / RFU, NDUFAF7 / Fold change vs veh, NDUFAF7 / RFU, SLC12A2 / Fold change vs veh, SLC12A2 / RFU, IBTK / Fold change vs veh, IBTK / RFU, ESF1 / Fold change vs veh, ESF1 / Fold change vs veh, TMEM50B / RFU, TAOK1 / Fold change vs veh, TAOK1 / RFU, ACBD3 / Fold change vs veh, ACBD3 / RFU, TMA16 / Fold change vs veh, TMA16 / RFU, RWDD3 / Fold change vs veh, RWDD3 / RFU, BCAT1 / Fold change vs veh, BCAT1 / RFU, EDEM3 / Fold change vs veh, EDEM3 / RFU, TMEM33 / Fold change vs veh, TMEM33 / RFU, WDR75 / Fold change vs veh, WDR75 / RFU, AHCTF1 / Fold change vs veh, AHCTF1 / RFU, TFRC / Fold change vs veh, TFRC / RFU, ZDHHC17 / Fold change vs veh, ZDHHC17 / RFU, NOM1 / Fold change vs veh, NOM1 / RFU, ARL8B / Fold change vs veh, ARL8B / RFU, ZBTB11 / Fold change vs veh, ZBTB11 / RFU, TAMM41 / Fold change vs veh, TAMM41 / RFU, KIAA1704 /// LOC100996395 / Fold change vs veh, KIAA1704 /// LOC100996395 / RFU, ING1 / Fold change vs veh, ING1 / RFU, TRMT61B / Fold change vs veh, TRMT61B / RFU, FUBP3 / Fold change vs veh, FUBP3 / RFU, TP53 / Fold change vs veh, TP53 / RFU, TNKS2 / Fold change vs veh, TNKS2 / RFU, ZFP14 / Fold change vs veh, ZFP14 / RFU, ACTR2 / Fold change vs veh, ACTR2 / RFU, PPP3R1 / Fold change vs veh, PPP3R1 / RFU, PIK3R1 / Fold change vs veh, PIK3R1 / RFU, HNRNPA1 / Fold change vs veh, HNRNPA1 / RFU, RNF170 / Fold change vs veh, RNF170 / RFU, ZNF28 / Fold change vs veh, ZNF28 / RFU, RNGTT / Fold change vs veh, RNGTT / RFU, OGT / Fold change vs veh, OGT / RFU, BRD1 / Fold change vs veh, BRD1 / RFU, MARS / Fold change vs veh, MARS / RFU, ZNF655 / Fold change vs veh, ZNF655 / RFU, FAHD1 / Fold change vs veh, FAHD1 / RFU, BDP1 / Fold change vs veh, BDP1 / RFU, LRRCC1 / Fold change vs veh, LRRCC1 / RFU, ARID1A / Fold change vs veh, ARID1A / RFU, ZNF146 / Fold change vs veh, ZNF146 / RFU, ZNF330 / Fold change vs veh, ZNF330 / RFU, GPN3 / Fold change vs veh, GPN3 / RFU, C9orf123 / Fold change vs veh, C9orf123 / RFU, N4BP2L2 / Fold change vs veh, N4BP2L2 / RFU, ARFIP1 / Fold change vs veh, ARFIP1 / RFU, FAM179B / Fold change vs veh, FAM179B / RFU, BCL10 / Fold change vs veh, BCL10 / RFU, UHRF1BP1L / Fold change vs veh, UHRF1BP1L / RFU, BET1 / Fold change vs veh, BET1 / RFU, CNOT2 / Fold change vs veh, CNOT2 / RFU, ZNF268 / Fold change vs veh, ZNF268 / Fold change vs veh, ZNF507 / RFU, DGCR2 / Fold change vs veh, DGCR2 / RFU, WDSUB1 / Fold change vs veh, WDSUB1 / Fold change vs veh, HSP90B1 /// MIR3652 / RFU, ADSS / Fold change vs veh, ADSS / RFU, GK / Fold change vs veh, GK / RFU, ZNF148 / Fold change vs veh, ZNF148 / RFU, TAF9 / Fold change vs veh, TAF9 / RFU, SLC1A5 / Fold change vs veh, SLC1A5 / RFU, SLMO2 / Fold change vs veh, SLMO2 / RFU, ABCC4 / Fold change vs veh, ABCC4 / RFU, LOC101060439 /// RAP1B / Fold change vs veh, LOC101060439 /// RAP1B / RFU, RFX7 / Fold change vs veh, RFX7 / RFU, GTPBP10 / Fold change vs veh, GTPBP10 / RFU, CNEP1R1 / Fold change vs veh, CNEP1R1 / RFU, BIVM-ERCC5 /// ERCC5 / Fold change vs veh, BIVM-ERCC5 /// ERCC5 / RFU, ILF3 / Fold change vs veh, ILF3 / RFU 11762660_at / Fold change /veh 11762660_at / RFU VCAN (11757783_s_at) / Fold change /veh VCAN (11757783_s_at) / RFU DDX43 (11728927_at) / Fold change /veh DDX43 (11728927_at) / RFU KRT8 (11758188_x_at) / Fold change /veh KRT8 (11758188_x_at) / RFU NKD1 (11759106_at) / Fold change /veh NKD1 (11759106_at) / RFU SRD5A1 (11742802_a_at) / Fold change /veh SRD5A1 (11742802_a_at) / RFU TPSAB1 /// TPSB2 (11721975_s_at) / Fold change /veh TPSAB1 /// TPSB2 (11721975_s_at) / RFU GSTM3 (11746129_a_at) / Fold change /veh GSTM3 (11746129_a_at) / RFU IL23R (11737362_x_at) / Fold change /veh IL23R (11737362_x_at) / RFU TMEM51 (11727254_a_at) / Fold change /veh TMEM51 (11727254_a_at) / RFU PIWIL2 (11732686_x_at) / Fold change /veh PIWIL2 (11732686_x_at) / RFU ORM1 (11744905_x_at) / Fold change /veh ORM1 (11744905_x_at) / RFU CCDC152 (11743942_at) / Fold change /veh CCDC152 (11743942_at) / RFU ECM1 (11717891_a_at) / Fold change /veh ECM1 (11717891_a_at) / RFU IL23R (11748794_a_at) / Fold change /veh IL23R (11748794_a_at) / RFU TNFAIP8L3 (11732012_x_at) / Fold change /veh TNFAIP8L3 (11732012_x_at) / RFU MBOAT4 (11741988_at) / Fold change /veh MBOAT4 (11741988_at) / RFU 11764193_at / Fold change /veh 11764193_at / RFU TMEM53 (11763286_at) / Fold change /veh TMEM53 (11763286_at) / RFU MAGEB2 (11727129_at) / Fold change /veh MAGEB2 (11727129_at) / RFU TMEM200A (11744735_a_at) / Fold change /veh TMEM200A (11744735_a_at) / RFU CCDC152 (11751479_a_at) / Fold change /veh CCDC152 (11751479_a_at) / RFU FAM211A (11726209_a_at) / Fold change /veh FAM211A (11726209_a_at) / RFU RGS16 (11746705_a_at) / Fold change /veh RGS16 (11746705_a_at) / RFU VCAN (11755009_s_at) / Fold change /veh VCAN (11755009_s_at) / RFU RHOB (11743442_s_at) / Fold change /veh RHOB (11743442_s_at) / RFU RGS16 (11720943_a_at) / Fold change /veh RGS16 (11720943_a_at) / RFU RGS16 (11720944_at) / Fold change /veh RGS16 (11720944_at) / RFU, VPS4B / Fold change vs veh, VPS4B / RFU, CREB1 / Fold change vs veh, CREB1 / RFU, DNAJC13 / Fold change vs veh, DNAJC13 / RFU, GNAQ / Fold change vs veh, GNAQ / RFU, CDK5R1 / Fold change vs veh, CDK5R1 / RFU, ZRANB3 / Fold change vs veh, ZRANB3 / RFU, CUL4A / Fold change vs veh, CUL4A / RFU, CCNY / Fold change vs veh, CCNY / RFU, UFL1 / Fold change vs veh, UFL1 / RFU, COG3 / Fold change vs veh, COG3 / RFU, DIAPH2 / Fold change vs veh, DIAPH2 / RFU, SKA2 / Fold change vs veh, SKA2 / RFU, AFF3 / Fold change vs veh, AFF3 / RFU, LMF1 / Fold change vs veh, LMF1 / RFU, IPO11 / Fold change vs veh, IPO11 / RFU, DFFB / Fold change vs veh, DFFB / RFU, FOXP1 / Fold change vs veh, FOXP1 / RFU, CARD8 / Fold change vs veh, CARD8 / RFU, STRN3 / Fold change vs veh, STRN3 / RFU, ADK / Fold change vs veh, ADK / RFU, RASSF2 / Fold change vs veh, RASSF2 / RFU, WIPF1 / Fold change vs veh, WIPF1 / RFU, LARP1B / Fold change vs veh, LARP1B / RFU, RASA1 / Fold change vs veh, RASA1 / RFU, RB1 / Fold change vs veh, RB1 / RFU, PPFIA1 / Fold change vs veh, PPFIA1 / RFU, MAT2A / Fold change vs veh, MAT2A / RFU, CCT5 / Fold change vs veh, CCT5 / RFU, WDR92 / Fold change vs veh, WDR92 / RFU, CUX1 / Fold change vs veh, CUX1 / RFU, TTC7A / Fold change vs veh, TTC7A / RFU, TMEM135 / Fold change vs veh, TMEM135 / RFU, DEPTOR / Fold change vs veh, DEPTOR / RFU, CPM / Fold change vs veh, CPM / RFU, DNAJB6 / Fold change vs veh, DNAJB6 / RFU, CACNA2D3 / Fold change vs veh, CACNA2D3 / RFU, DTX4 / Fold change vs veh, DTX4 / RFU, TFCP2 / Fold change vs veh, TFCP2 / RFU, GMCL1 /// GMCL1P1 / Fold change vs veh, GMCL1 /// GMCL1P1 / RFU, AEBP2 / Fold change vs veh, AEBP2 / RFU, SNHG1 /// SNORD22 /// SNORD25 /// SNORD26 /// SNORD27 /// SNORD28 /// SNORD29 /// SNORD31 / Fold change vs veh, SNHG1 /// SNORD22 /// SNORD25 /// SNORD26 /// SNORD27 /// SNORD28 /// SNORD29 /// SNORD31 / Fold change (Aza/veh), C12orf56 (ProbeSet 11735607_a_at) / Fold change (ACY-1035/veh), C12orf56 (ProbeSet 11735607_a_at) / Fold change (Aza/veh), FGFR1OP (ProbeSet 11751329_s_at) / Fold change (ACY-1035/veh), FGFR1OP (ProbeSet 11751329_s_at) / Fold change (Aza/veh), VPS36 (ProbeSet 11739960_a_at) / Fold change (ACY-1035/veh), VPS36 (ProbeSet 11739960_a_at) / RFU SYPL1 (11715823_x_at) / Fold change /veh SYPL1 (11715823_x_at) / RFU IGFBP7 (11715501_s_at) / Fold change /veh IGFBP7 (11715501_s_at) / RFU REEP3 (11722064_at) / Fold change /veh REEP3 (11722064_at) / RFU IGLL1 (11728026_x_at) / Fold change /veh IGLL1 (11728026_x_at): dose or concentration left out as unconfirmed
# Conditions: MV-4-11 cells, 48 hours
smiles,measurement,value
Nc1ncn([C@@H]2O[C@H](CO)[C@@H](O)[C@H]2O)c(=O)n1 [azacitidine],RFU FAM174B (11720279_a_at),25.09 RFU
